These results are taken from ChEMBL document CHEMBL4376833, “Influence of Non-natural Cationic Amino Acids on the Biological Activity Profile of Innate Defense Regulator Peptides” (J Med Chem, 2019).

Calls of active or inactive are those of the source. The rule behind the calls is not given here. Non-standard residues stand in square brackets, D forms with d. Residues, ends and D or L forms follow the SMILES beside them. hArg = N=C(N)NCCCC[C@H](N)C(=O)O; Agb = N=C(N)NCC[C@H](N)C(=O)O; Agp = N=C(N)NC[C@H](N)C(=O)O; Orn = NCCC[C@H](N)C(=O)O; Dab = NCC[C@H](N)C(=O)O; Dap = NC[C@H](N)C(=O)O

For experiment [1], the system named is Staphylococcus aureus. The experiment in a line: Antibiofilm activity against methicillin-resistant Staphylococcus aureus assessed as inhibition of biofilm formation incubated for overnight by crystal violet staining based microtiter plate assay. The class given is functional, organism-based.
Experiment [2] relates to Staphylococcus aureus. Nature of the experiment: Antibiofilm activity against methicillin-resistant Staphylococcus aureus assessed as inhibition of biofilm formation by measuring residual biofilm growth incubated for overnight at 10-fold dilution by crystal violet staining based microtiter plate assay relative to control. The class given is functional.
Experiment [3] concerns Staphylococcus aureus. The experiment in a line: Antibacterial activity against methicillin-resistant Staphylococcus aureus assessed as alteration in bacterial growth incubated for overnight by microtiter plate based spectrophotometric analysis. The class given is functional, organism-based.

For `CC[C@H](C)[C@H](NC(=O)[C@H](CCCNC(=N)N)NC(=O)[C@@H](NC(=O)[C@H](C)NC(=O)[C@@H](NC(=O)[C@H](CCN)NC(=O)[C@H](CC(C)C)NC(=O)[C@H](CCCNC(=N)N)NC(=O)[C@@H](N)C(C)C)C(C)C)C(C)C)C(=O)N[C@@H](Cc1c[nH]c2ccccc12)C(=O)N[C@@H](CCCNC(=N)N)C(=O)N[C@@H](CCCNC(=N)N)C(N)=O` (H-VRL[Dab]VAVRIWRR-NH2), the inhibition entry in experiment [1] is “Dose-dependent effect”. Further, the “residual biofilm growth (% of control)” value in experiment [2] is 103.3%. The outcome in experiment [3] was Active.

With H-VRLIVAVRKWRR-NH2, the inhibition result in experiment [1] was “Dose-dependent effect”. Moreover, the “residual biofilm growth (% of control)” value in experiment [2] is given as 95.8%. For the same compound, the result in experiment [3] was Active.

On to `CC[C@H](C)[C@H](NC(=O)[C@H](CC(C)C)NC(=O)[C@H](CCCNC(=N)N)NC(=O)[C@@H](N)C(C)C)C(=O)N[C@@H](CNC(=N)N)C(=O)N[C@@H](C)C(=O)N[C@H](C(=O)N[C@@H](CCCNC(=N)N)C(=O)N[C@H](C(=O)N[C@@H](Cc1c[nH]c2ccccc12)C(=O)N[C@@H](CCCNC(=N)N)C(=O)N[C@@H](CCCNC(=N)N)C(N)=O)[C@@H](C)CC)C(C)C` (H-VRLI[Agp]AVRIWRR-NH2), for which the inhibition entry in experiment [1] is “Dose-dependent effect”. Moreover, the “residual biofilm growth (% of control)” value in experiment [2] stood at 99.9%. Further, the outcome in experiment [3] was Active.

For the compound H-VRLIVAVKIWRR-NH2, the inhibition result in experiment [1] is “Dose-dependent effect”. Besides, in experiment [2], the “residual biofilm growth (% of control)” value amounted to 17.9%. The outcome in experiment [3] was Active.

Regarding `CC[C@H](C)[C@H](NC(=O)[C@H](CCCNC(=N)N)NC(=O)[C@@H](NC(=O)[C@H](C)NC(=O)[C@@H](NC(=O)[C@@H](NC(=O)[C@H](CC(C)C)NC(=O)[C@H](CNC(=N)N)NC(=O)[C@@H](N)C(C)C)[C@@H](C)CC)C(C)C)C(C)C)C(=O)N[C@@H](Cc1c[nH]c2ccccc12)C(=O)N[C@@H](CCCNC(=N)N)C(=O)N[C@@H](CCCNC(=N)N)C(N)=O` (H-V[Agp]LIVAVRIWRR-NH2), the inhibition result in experiment [1] is “Dose-dependent effect”. Moreover, in experiment [2], the “residual biofilm growth (% of control)” value is 28.3%. Besides, the result in experiment [3] was Active.

Turning to `CC[C@H](C)[C@H](NC(=O)[C@H](CC(C)C)NC(=O)[C@H](CCCNC(=N)N)NC(=O)[C@@H](N)C(C)C)C(=O)N[C@@H](CCCCNC(=N)N)C(=O)N[C@@H](C)C(=O)N[C@H](C(=O)N[C@@H](CCCNC(=N)N)C(=O)N[C@H](C(=O)N[C@@H](Cc1c[nH]c2ccccc12)C(=O)N[C@@H](CCCNC(=N)N)C(=O)N[C@@H](CCCNC(=N)N)C(N)=O)[C@@H](C)CC)C(C)C` (H-VRLI[hArg]AVRIWRR-NH2), in experiment [1], the inhibition result was “Dose-dependent effect”. Also, in experiment [2], the “residual biofilm growth (% of control)” value is on record as 110.4%. In experiment [3], the result was Active.

Turning to `CC[C@H](C)[C@H](NC(=O)[C@H](CCCNC(=N)N)NC(=O)[C@@H](NC(=O)[C@H](C)NC(=O)[C@@H](NC(=O)[C@@H](NC(=O)[C@H](CC(C)C)NC(=O)[C@H](CCCNC(=N)N)NC(=O)[C@@H](N)C(C)C)[C@@H](C)CC)C(C)C)C(C)C)C(=O)N[C@@H](Cc1c[nH]c2ccccc12)C(=O)N[C@@H](CN)C(=O)N[C@@H](CCCNC(=N)N)C(N)=O` (H-VRLIVAVRIW[Dap]R-NH2), in experiment [1], the inhibition entry was “Dose-dependent effect”. In addition, the “residual biofilm growth (% of control)” value in experiment [2] came to 19.9%. Moreover, the outcome in experiment [3] was Active.

With `CC[C@H](C)[C@H](NC(=O)[C@H](CCCNC(=N)N)NC(=O)[C@@H](NC(=O)[C@H](C)NC(=O)[C@@H](NC(=O)[C@@H](NC(=O)[C@H](CCNC(=N)N)NC(=O)[C@H](CCCNC(=N)N)NC(=O)[C@@H](N)C(C)C)[C@@H](C)CC)C(C)C)C(C)C)C(=O)N[C@@H](Cc1c[nH]c2ccccc12)C(=O)N[C@@H](CCCNC(=N)N)C(=O)N[C@@H](CCCNC(=N)N)C(N)=O` (H-VR[Agb]IVAVRIWRR-NH2), the inhibition entry in experiment [1] is “Dose-dependent effect”. In experiment [2], the “residual biofilm growth (% of control)” value stood at 99.8%. The outcome in experiment [3] was Active.

Consider `CC[C@H](C)[C@H](NC(=O)[C@H](CCCNC(=N)N)NC(=O)[C@@H](NC(=O)[C@H](C)NC(=O)[C@@H](NC(=O)[C@@H](NC(=O)[C@H](CC(C)C)NC(=O)[C@H](CCCNC(=N)N)NC(=O)[C@@H](N)C(C)C)[C@@H](C)CC)C(C)C)C(C)C)C(=O)N[C@@H](Cc1c[nH]c2ccccc12)C(=O)N[C@@H](CCCNC(=N)N)C(=O)N[C@@H](CCNC(=N)N)C(N)=O` (H-VRLIVAVRIWR[Agb]-NH2), for which the inhibition result in experiment [1] was “Dose-dependent effect”. Also, the “residual biofilm growth (% of control)” value in experiment [2] turned out to be 39.9%. Besides, the outcome in experiment [3] was Active.

For `CC[C@H](C)[C@H](NC(=O)[C@H](CC(C)C)NC(=O)[C@H](CCCNC(=N)N)NC(=O)[C@@H](N)C(C)C)C(=O)N[C@@H](CN)C(=O)N[C@@H](C)C(=O)N[C@H](C(=O)N[C@@H](CCCNC(=N)N)C(=O)N[C@H](C(=O)N[C@@H](Cc1c[nH]c2ccccc12)C(=O)N[C@@H](CCCNC(=N)N)C(=O)N[C@@H](CCCNC(=N)N)C(N)=O)[C@@H](C)CC)C(C)C` (H-VRLI[Dap]AVRIWRR-NH2), the inhibition entry in experiment [1] is “Dose-dependent effect”. Further, the “residual biofilm growth (% of control)” value in experiment [2] worked out at 92%. Moreover, in experiment [3], the outcome was Active.

As to `CC[C@H](C)[C@H](NC(=O)[C@H](CCCNC(=N)N)NC(=O)[C@@H](NC(=O)[C@H](C)NC(=O)[C@@H](NC(=O)[C@@H](NC(=O)[C@H](CC(C)C)NC(=O)[C@H](CCCNC(=N)N)NC(=O)[C@@H](N)C(C)C)[C@@H](C)CC)C(C)C)C(C)C)C(=O)N[C@@H](CCCN)C(=O)N[C@@H](CCCNC(=N)N)C(=O)N[C@@H](CCCNC(=N)N)C(N)=O` (H-VRLIVAVRI[Orn]RR-NH2), in experiment [1], the inhibition result was “Dose-dependent effect”. For the same compound, the “residual biofilm growth (% of control)” value in experiment [2] was determined as 39.3%. The result in experiment [3] was Active.

With H-VRLIVAVRIRRR-NH2, the inhibition entry in experiment [1] is “Dose-dependent effect”. In experiment [2], the “residual biofilm growth (% of control)” value is 33.2%. Besides, the result in experiment [3] was Active.

As to `CC[C@H](C)[C@H](NC(=O)[C@H](CCCNC(=N)N)NC(=O)[C@@H](NC(=O)[C@H](CCCCNC(=N)N)NC(=O)[C@@H](NC(=O)[C@@H](NC(=O)[C@H](CC(C)C)NC(=O)[C@H](CCCNC(=N)N)NC(=O)[C@@H](N)C(C)C)[C@@H](C)CC)C(C)C)C(C)C)C(=O)N[C@@H](Cc1c[nH]c2ccccc12)C(=O)N[C@@H](CCCNC(=N)N)C(=O)N[C@@H](CCCNC(=N)N)C(N)=O` (H-VRLIV[hArg]VRIWRR-NH2), in experiment [1], the inhibition result was “Dose-dependent effect”. Moreover, in experiment [2], the “residual biofilm growth (% of control)” value is listed as 19.7%. Moreover, the result in experiment [3] was Active.

For `CC[C@H](C)[C@H](NC(=O)[C@H](CCCNC(=N)N)NC(=O)[C@H](CCN)NC(=O)[C@H](C)NC(=O)[C@@H](NC(=O)[C@@H](NC(=O)[C@H](CC(C)C)NC(=O)[C@H](CCCNC(=N)N)NC(=O)[C@@H](N)C(C)C)[C@@H](C)CC)C(C)C)C(=O)N[C@@H](Cc1c[nH]c2ccccc12)C(=O)N[C@@H](CCCNC(=N)N)C(=O)N[C@@H](CCCNC(=N)N)C(N)=O` (H-VRLIVA[Dab]RIWRR-NH2), in experiment [1], the inhibition result was “Dose-dependent effect”. The “residual biofilm growth (% of control)” value in experiment [2] worked out at 102.5%. Also, the result in experiment [3] was Active.

Take `CC[C@H](C)[C@H](NC(=O)[C@H](CCCNC(=N)N)NC(=O)[C@H](CCCCNC(=N)N)NC(=O)[C@H](C)NC(=O)[C@@H](NC(=O)[C@@H](NC(=O)[C@H](CC(C)C)NC(=O)[C@H](CCCNC(=N)N)NC(=O)[C@@H](N)C(C)C)[C@@H](C)CC)C(C)C)C(=O)N[C@@H](Cc1c[nH]c2ccccc12)C(=O)N[C@@H](CCCNC(=N)N)C(=O)N[C@@H](CCCNC(=N)N)C(N)=O` (H-VRLIVA[hArg]RIWRR-NH2): the inhibition entry in experiment [1] was “Dose-dependent effect”. In addition, in experiment [2], the “residual biofilm growth (% of control)” value was determined as 107%. Also, the outcome in experiment [3] was Active.

Turning to `CC[C@H](C)[C@H](NC(=O)[C@H](CCCNC(=N)N)NC(=O)[C@H](CN)NC(=O)[C@H](C)NC(=O)[C@@H](NC(=O)[C@@H](NC(=O)[C@H](CC(C)C)NC(=O)[C@H](CCCNC(=N)N)NC(=O)[C@@H](N)C(C)C)[C@@H](C)CC)C(C)C)C(=O)N[C@@H](Cc1c[nH]c2ccccc12)C(=O)N[C@@H](CCCNC(=N)N)C(=O)N[C@@H](CCCNC(=N)N)C(N)=O` (H-VRLIVA[Dap]RIWRR-NH2), the inhibition entry in experiment [1] was “Dose-dependent effect”. Further, the “residual biofilm growth (% of control)” value in experiment [2] is 102%. For the same compound, the result in experiment [3] was Active.

On to `CC[C@H](C)[C@H](NC(=O)[C@H](CCCNC(=N)N)NC(=O)[C@@H](NC(=O)[C@H](C)NC(=O)[C@@H](NC(=O)[C@H](CNC(=N)N)NC(=O)[C@H](CC(C)C)NC(=O)[C@H](CCCNC(=N)N)NC(=O)[C@@H](N)C(C)C)C(C)C)C(C)C)C(=O)N[C@@H](Cc1c[nH]c2ccccc12)C(=O)N[C@@H](CCCNC(=N)N)C(=O)N[C@@H](CCCNC(=N)N)C(N)=O` (H-VRL[Agp]VAVRIWRR-NH2), for which the inhibition result in experiment [1] is “Dose-dependent effect”. The “residual biofilm growth (% of control)” value in experiment [2] is 104.1%. Moreover, in experiment [3], the result was Active.

Take `CC[C@H](C)[C@H](NC(=O)[C@H](CCCNC(=N)N)NC(=O)[C@@H](NC(=O)[C@H](C)NC(=O)[C@@H](NC(=O)[C@@H](NC(=O)[C@H](CC(C)C)NC(=O)[C@H](CN)NC(=O)[C@@H](N)C(C)C)[C@@H](C)CC)C(C)C)C(C)C)C(=O)N[C@@H](Cc1c[nH]c2ccccc12)C(=O)N[C@@H](CCCNC(=N)N)C(=O)N[C@@H](CCCNC(=N)N)C(N)=O` (H-V[Dap]LIVAVRIWRR-NH2): in experiment [1], the inhibition result is “Dose-dependent effect”. Also, the “residual biofilm growth (% of control)” value in experiment [2] was 19.1%. Besides, in experiment [3], the outcome was Active.

Regarding `CC[C@H](C)[C@H](NC(=O)[C@H](CCCNC(=N)N)NC(=O)[C@@H](NC(=O)[C@H](C)NC(=O)[C@@H](NC(=O)[C@@H](NC(=O)[C@H](CC(C)C)NC(=O)[C@H](CCCNC(=N)N)NC(=O)[C@@H](N)C(C)C)[C@@H](C)CC)C(C)C)C(C)C)C(=O)N[C@@H](CNC(=N)N)C(=O)N[C@@H](CCCNC(=N)N)C(=O)N[C@@H](CCCNC(=N)N)C(N)=O` (H-VRLIVAVRI[Agp]RR-NH2), the inhibition result in experiment [1] is “Dose-dependent effect”. In addition, the “residual biofilm growth (% of control)” value in experiment [2] worked out at 102.9%. Moreover, the result in experiment [3] was Active.
